The target in assay [1] is T1, NLRP3 (Homo sapiens, UniProt Q96P20). As to the kind of experiment: THP-1 cells pyroptosis assay. Format: cell-based. Also on record: Seed THP-1 cells (25,000 cells/well) containing 1.0 μg/ml LPS; host or cells: THP-1. To be noted: LPS 1.0 μg/ml, nigericin 5 μM, resazurin readout, 10 μM top dose (Example 2: top dose of 30 μM). Put shortly: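 THP-1 cells (25,000/well) primed with 1 μg/ml LPS in serum-free RPMI, treated with compound (8-point dilution, 10 μM top unless stated; 0.1% DMSO) 3 h at 37°C, then nigericin 5 μM 1 h. Viability read by resazurin (100 μM, 1-2 h) fluorescence; IC50 from 4-parameter fit.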
T1 sequence (Q96P20 whole entry): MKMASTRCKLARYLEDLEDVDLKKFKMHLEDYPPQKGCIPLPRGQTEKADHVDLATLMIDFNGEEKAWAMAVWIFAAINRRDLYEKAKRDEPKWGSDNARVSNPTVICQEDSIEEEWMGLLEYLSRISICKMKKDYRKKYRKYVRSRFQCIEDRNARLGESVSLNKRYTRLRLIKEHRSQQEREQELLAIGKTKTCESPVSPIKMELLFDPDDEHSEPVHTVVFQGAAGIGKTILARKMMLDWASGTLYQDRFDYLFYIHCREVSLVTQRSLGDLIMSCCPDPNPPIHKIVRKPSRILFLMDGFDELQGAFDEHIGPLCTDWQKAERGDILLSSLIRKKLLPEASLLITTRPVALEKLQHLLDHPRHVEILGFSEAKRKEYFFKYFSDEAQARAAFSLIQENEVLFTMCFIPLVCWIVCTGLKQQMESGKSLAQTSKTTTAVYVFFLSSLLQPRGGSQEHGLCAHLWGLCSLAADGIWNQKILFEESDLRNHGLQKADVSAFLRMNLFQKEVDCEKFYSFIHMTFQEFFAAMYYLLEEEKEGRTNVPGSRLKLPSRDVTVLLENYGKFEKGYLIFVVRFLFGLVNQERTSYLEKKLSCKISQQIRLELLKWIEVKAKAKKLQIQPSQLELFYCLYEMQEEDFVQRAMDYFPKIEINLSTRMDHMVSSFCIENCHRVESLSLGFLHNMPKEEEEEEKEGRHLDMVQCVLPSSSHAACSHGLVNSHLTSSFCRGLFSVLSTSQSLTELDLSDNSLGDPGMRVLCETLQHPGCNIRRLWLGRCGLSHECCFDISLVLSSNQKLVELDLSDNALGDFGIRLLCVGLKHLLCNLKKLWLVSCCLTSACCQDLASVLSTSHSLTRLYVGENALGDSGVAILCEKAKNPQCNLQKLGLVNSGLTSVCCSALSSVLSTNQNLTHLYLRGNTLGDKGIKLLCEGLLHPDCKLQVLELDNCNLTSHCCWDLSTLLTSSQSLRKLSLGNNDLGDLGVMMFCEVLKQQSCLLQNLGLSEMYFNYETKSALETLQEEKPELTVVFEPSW

Assay [2] has as its target T1, NLRP3. Kind of assay: Human whole blood IL1β release assay. Conditions: LPS 1 μg/ml, nigericin 10 μM, IL-1β AlphaLisa, 10 μM top dose (Example 2: top dose of 30 μM), read-out: HWB IC50. Format: cell-based. Put shortly: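 Healthy-donor heparinised human whole blood with 1 μg/ml LPS, compound (8-point half-log dilution, 10 μM top dose unless stated; 0.1% DMSO vehicle) for 3 h at 37 °C, then nigericin 10 μM final for 1 h. Supernatant IL-1β by AlphaLISA; IC50 from 4-parameter variable-slope fit.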

A value given as a limit tells only on which side of the number the result lay.

From US20210261512A1, “NOVEL COMPOUNDS” (INFLAZOME LIMITED, priority 2018, published 2021) come the findings set out here.

Regarding `[2H]C([2H])([2H])Oc1cc(-c2ccc3c(c2Nc2nnc(S(=O)(=O)N4CC[C@H](C(C)(C)O)C4)[nH]2)CCC3)ccn1` [Example 344, (S)-2-(1-((5-((5-(2-(methoxy-d3)pyridin-4-yl)-2,3-dihydro-1H-inden-4-yl)amino)-4H-1,2,4-triazol-3-yl)sulfonyl)pyrrolidin-3-yl)propan-2-ol], the half-inhibitory concentration (IC50) on NLRP3 [1] is no more than 0.5 µM; on NLRP3 [2], no more than 5 µM.

Turning to `CCN(CC)CCCS(=O)(=O)c1nnc(Nc2c(-c3ccncc3)cc(F)c3c2CCC3)[nH]1` [Example 77, 5-((3-(diethylamino)propyl)sulfonyl)-N-(7-fluoro-5-(pyridin-4-yl)-2,3-dihydro-1H-inden-4-yl)-4H-1,2,4-triazol-3-amine], the half-inhibitory concentration (IC50) was no more than 1 µM against NLRP3 [1] and no more than 5 µM at NLRP3 [2].

Turning to `O=S(=O)(c1nnc(Nc2c3c(cc4c2CCC4)CCC3)[nH]1)N1CC2(CNC2)C1` [Example 150, 5-(2,6-Diazaspiro[33]heptan-2-ylsulfonyl)-N-(1,2,3,5,6,7-hexahydro-s-indacen-4-yl)-4H-1,2,4-triazol-3-amine], the IC50 against NLRP3 [1] and at NLRP3 [2] was no more than 5 µM each time.

For the compound `CC(C)c1cc(F)cc(-c2ccncc2)c1Oc1nnc(S(=O)(=O)N2CCC(CN(C)C)C2)[nH]1` (centres unmarked) [Example 152, 1-(1-((5-(4-fluoro-2-isopropyl-6-(pyridin-4-yl)phenoxy)-4H-1,2,4-triazol-3-yl)sulfonyl)pyrrolidin-3-yl)-N,N-dimethylmethanamine], the IC50 on NLRP3 [1] and on NLRP3 [2] was no more than 5 µM in each case.

As for `CCN(CC)C[C@H]1CCN(S(=O)(=O)c2nnc(Nc3c4c(cc5c3CCC5)CCC4)[nH]2)C1` [Example 144, (R)-5-((3-((diethylamino)methyl)pyrrolidin-1-yl)sulfonyl)-N-(1,2,3,5,6,7-hexahydro-s-indacen-4-yl)-4H-1,2,4-triazol-3-amine], the half-maximal inhibitory concentration (IC50) at NLRP3 [1] and at NLRP3 [2] was no more than 0.5 µM in each case.

As for `CC(C)N(CCNS(=O)(=O)c1nnc(Nc2c3c(cc4c2CCC4)CCC3)[nH]1)C(C)C` [Example 110, N-(2-(diisopropylamino)ethyl)-5-((1,2,3,5,6,7-hexahydro-s-indacen-4-yl)amino)-4H-1,2,4-triazole-3-sulfonamide], the concentration for half-maximal inhibition (IC50) against NLRP3 [1] is no more than 0.5 µM; on NLRP3 [2] it was no more than 10 µM.

On to `CN(C)CC1CN(S(=O)(=O)c2nnc(Nc3c4c(cc5c3CCC5)CCC4)[nH]2)CCO1` (centres unmarked) [Example 149, 5-((2-((dimethylamino)methyl)morpholino)sulfonyl)-N-(1,2,3,5,6,7-hexahydro-s-indacen-4-yl)-4H-1,2,4-triazol-3-amine], for which the IC50 on NLRP3 [1] is no more than 1 µM; at NLRP3 [2] it was no more than 5 µM.

Turning to `CN(C)C[C@@H]1CCN(S(=O)(=O)c2nnc(Nc3c4c(cc5c3CCC5)CCC4)[nH]2)C1` [Example 147, (S)-5-((3-((dimethylamino)methyl)pyrrolidin-1-yl)sulfonyl)-N-(1,2,3,5,6,7-hexahydro-s-indacen-4-yl)-4H-1,2,4-triazol-3-amine], the IC50 at NLRP3 [1] and on NLRP3 [2] was no more than 0.5 µM throughout.

Turning to `CCN1CCC12CCN(S(=O)(=O)c1nnc(Nc3c4c(cc5c3CCC5)CCC4)[nH]1)CC2` [Example 257, 5-((1-ethyl-1,7-diazaspiro[35]nonan-7-yl)sulfonyl)-N-(1,2,3,5,6,7-hexahydro-s-indacen-4-yl)-4H-1,2,4-triazol-3-amine], the IC50 on NLRP3 [1] and at NLRP3 [2] was no more than 0.5 µM in each case.

Regarding `CC(C)(O)C1CN(S(=O)(=O)c2nnc(Nc3c4c(cc5c3CCC5)CCC4)[nH]2)C1` [Example 151, 2-(1-((5-((1,2,3,5,6,7-hexahydro-s-indacen-4-yl)amino)-4H-1,2,4-triazol-3-yl)sulfonyl)azetidin-3-yl)propan-2-ol], the 50% inhibitory concentration (IC50) on NLRP3 [1] and on NLRP3 [2] was no more than 5 µM throughout.

On to `CN1CCCC12CCN(S(=O)(=O)c1nnc(Nc3c(-c4ccnc(OC(F)F)c4)ccc4c3CCO4)[nH]1)CC2` [Example 210, N-(5-(2-(difluoromethoxy)pyridin-4-yl)-2,3-dihydrobenzofuran-4-yl)-5-((1-methyl-1,8-diazaspiro[4.5]decan-8-yl)sulfonyl)-4H-1,2,4-triazol-3-amine], for which the IC50 on NLRP3 [1] is no more than 0.5 µM; at NLRP3 [2] it was no more than 5 µM.

Turning to `O=S(=O)(NCCN1CCC1)c1nnc(Nc2c3c(cc4c2CCC4)CCC3)[nH]1` [Example 89, N-(2-(azetidin-1-yl)ethyl)-5-((1,2,3,5,6,7-hexahydro-s-indacen-4-yl)amino)-4H-1,2,4-triazole-3-sulfonamide], the results for the half-inhibitory concentration (IC50) against NLRP3 [1] and on NLRP3 [2] were no more than 1 µM and no more than 5 µM, respectively.

Turning to `CNC[C@H]1CCN(S(=O)(=O)c2nnc(Nc3c4c(cc5c3CCC5)CCC4)[nH]2)C1` [Example 288, (R)—N-(1,2,3,5,6,7-hexahydro-s-indacen-4-yl)-5-((3-((methylamino)methyl)pyrrolidin-1-yl)sulfonyl)-4H-1,2,4-triazol-3-amine], the values for the 50% inhibitory concentration (IC50) at NLRP3 [1] and at NLRP3 [2] were no more than 0.5 µM and no more than 1 µM, respectively.

For `CC1(O)CCN(S(=O)(=O)c2nnc(Nc3c4c(cc5c3CCC5)CCC4)[nH]2)CC1` [Example 292, 1-((5-((1,2,3,5,6,7-hexahydro-s-indacen-4-yl)amino)-4H-1,2,4-triazol-3-yl)sulfonyl)-4-methylpiperidin-4-ol], the concentration for half-maximal inhibition (IC50) against NLRP3 [1] and at NLRP3 [2] was no more than 5 µM in each case.

`CCN(CC)C[C@@H]1CCN(S(=O)(=O)c2nnc(Nc3c4c(cc5c3CCC5)CCC4)[nH]2)C1` [Example 143, (S)-5-((3-((diethylamino)methyl)pyrrolidin-1-yl)sulfonyl)-N-(1,2,3,5,6,7-hexahydro-s-indacen-4-yl)-4H-1,2,4-triazol-3-amine]: the IC50 against NLRP3 [1] and on NLRP3 [2] was no more than 0.5 µM in each case.

On to `CCN(CC)CCCNS(=O)(=O)c1nnc(Nc2c3c(cc4c2CCC4)CCC3)[nH]1` [Example 109, N-(3-(diethylamino)propyl)-5-((1,2,3,5,6,7-hexahydro-s-indacen-4-yl)amino)-4H-1,2,4-triazole-3-sulfonamide], for which the results for the 50% inhibitory concentration (IC50) against NLRP3 [1] and on NLRP3 [2] were no more than 0.5 µM and no more than 1 µM, respectively.

Take `COc1cc(-c2c(C)cc3c(c2Nc2nnc(S(=O)(=O)c4ccccc4)[nH]2)CCC3)ccn1` [Example 319, N-(5-(2-methoxypyridin-4-yl)-6-methyl-2,3-dihydro-1H-inden-4-yl)-5-(phenylsulfonyl)-4H-1,2,4-triazol-3-amine]: the half-inhibitory concentration (IC50) at NLRP3 [1] is no more than 0.5 µM; on NLRP3 [2] it was no more than 10 µM.

Regarding `Cc1cc(-c2ccc3c(c2Nc2nnc(S(=O)(=O)N4CCC(N(C)C)CC4)[nH]2)CCO3)ccn1` [Example 217, N,N-dimethyl-1-((5-((5-(2-methylpyridin-4-yl)-2,3-dihydrobenzofuran-4-yl)amino)-4H-1,2,4-triazol-3-yl)sulfonyl)piperidin-4-amine], the IC50 against NLRP3 [1] is no more than 5 µM; at NLRP3 [2], no more than 10 µM.

Turning to `CN(C)Cc1cccc(S(=O)(=O)c2nnc(Nc3c4c(cc5c3CCC5)CCC4)[nH]2)c1` [Example 44, 5-((3-((dimethylamino)methyl)phenyl)sulfonyl)-N-(1,2,3,5,6,7-hexahydro-s-indacen-4-yl)-4H-1,2,4-triazol-3-amine], the 50% inhibitory concentration (IC50) against NLRP3 [1] was no more than 0.5 µM; on NLRP3 [2], no more than 5 µM.

On to `COc1cc(-c2ccc3c(c2Nc2nnc(S(=O)(=O)c4cccc(CN(C)C)c4)[nH]2)CCC3)ccn1` [Example 329, 5-((3-((dimethylamino)methyl)-phenyl)sulfonyl)-N-(5-(2-methoxypyridin-4-yl)-2,3-dihydro-1H-inden-4-yl)-4H-1,2,4-triazol-3-amine], for which the concentration for half-maximal inhibition (IC50) is no more than 0.5 µM on NLRP3 [1] and no more than 5 µM on NLRP3 [2].

For the compound `O=S(=O)(c1nnc(Nc2c3c(cc4c2CCC4)CCC3)[nH]1)N1CCC2(CCOC2)CC1` [Example 360, 5-((2-oxa-8-azaspiro[4.5]decan-8-yl)sulfonyl)-N-(1,2,3,5,6,7-hexahydro-s-indacen-4-yl)-4H-1,2,4-triazol-3-amine], the values for the IC50 at NLRP3 [1] and at NLRP3 [2] were no more than 0.5 µM and no more than 5 µM, respectively.

For `[2H]C([2H])([2H])Oc1cc(-c2ccc3c(c2Nc2nnc(S(=O)(=O)N4CC5(CCN(C)C5)C4)[nH]2)CCC3)ccn1` [Example 196, N-(5-(2-(methoxy-d)pyridin-4-yl)-2,3-dihydro-1H-inden-4-yl)-5-((6-methyl-2,6-diazaspiro[3.4]octan-2-yl)sulfonyl)-4H-1,2,4-triazol-3-amine], the IC50 against NLRP3 [1] and on NLRP3 [2] was no more than 0.5 µM in each case.

In the case of `O=S(=O)(c1nnc(Nc2c3c(cc4c2CCC4)CCC3)[nH]1)N1CCC(N2CCCC2)C1` (centres unmarked) [Example 104, 5-([1,3′-bipyrrolidin]-1′-ylsulfonyl)-N-(1,2,3,5,6,7-hexahydro-s-indacen-4-yl)-4H-1,2,4-triazol-3-amine], the half-maximal inhibitory concentration (IC50) was no more than 0.5 µM on NLRP3 [1] and no more than 5 µM on NLRP3 [2].

As for `O=S(=O)(c1nnc(Nc2c3c(cc4c2CCC4)CCC3)[nH]1)N1CC(N2CCCCC2)C1` [Example 133, N-(1,2,3,5,6,7-hexahydro-s-indacen-4-yl)-5-((3-(piperidin-1-yl)azetidin-1-yl)sulfonyl)-4H-1,2,4-triazol-3-amine], the IC50 against NLRP3 [1] is no more than 0.5 µM; at NLRP3 [2] it was no more than 10 µM.

With `CN(C)CC1CCCN(S(=O)(=O)c2nnc(Nc3c4c(cc5c3CCC5)CCC4)[nH]2)C1` (centres unmarked) [Example 305, 5-((3-((dimethylamino)methyl)piperidin-1-yl)sulfonyl)-N-(1,2,3,5,6,7-hexahydro-s-indacen-4-yl)-4H-1,2,4-triazol-3-amine], the 50% inhibitory concentration (IC50) against NLRP3 [1] and at NLRP3 [2] was no more than 5 µM each time.
